{"source": "patent US4499299A", "about": "“Pharmaceutically active phenylcarboxylic acid derivatives” (ICI Americas Inc., priority 1981, dated 1985)"}
{"test_system": "isolated guinea pig trachea contracted by leukotriene C4 or D4 (SRS-A)", "assay": "Antagonism of leukotriene C4 or D4 induced contractions of isolated guinea pig trachea (SRS-A antagonist test)", "assay_type": "cell-based", "conditions": "inhibition of contraction induced by 8×10^-9 M LTD4 or LTC4, isolated guinea pig tracheal strip, indomethacin 5×10^-6 M present", "description": "Male Hartley guinea pigs weighing 300-500 g are killed and exsanguinated. The trachea is immediately resected, cleaned of adhering connective tissue and cut into a spiral strip measuring approximately 3 to 5 mm ×20 to 25 mm. The strip is mounted in a 10 ml jacketed tissue bath by tying one end to a tissue hook and the opposite end to a Grass FT03C force-displacement transducer connected to an 8-channel Beckman Polygraph for recording contractile or relaxant responses. The tissue is bathed in modified Krebs' solution (37.5° C.) of the following composition (mM): NaCl, 119; KCl, 4.6; CaCl2, 1.8; MgCl2, 0.5; NaHCO3, 24.9; NaH2 PO4, 1.0; glucose, 11.1. Indomethacin, a cyclooxygenase inhibitor, is also present in a concentration of 5×10^-6 M. The tissue baths are constantly aerated with 95% O2 and 5% CO2. Tissues are placed under a passive tension of 2 g and allowed a 50 minute equilibration period before beginning experiments. This technique is standard for studying the effects of drugs on airway smooth muscle (Krell, R. D., J. Pharmacol. Exp. Ther. 211: 436, 1979; Kneussel, M. P. and Richardson, J. B., J. Appl. Physiol. 45: 307, 1978; Fleisch, J. H. and Calkins, P. J., J. Appl. Physiol. 41: 62, 1976).\nTissues are set up in groups of eight--four are used as time/vehicle controls and the remaining four for experimental compounds. No fewer than 4 tissues are used for each test compound. All tissues are exposed to 8×10^-9 M LTD4, following the 50 minute equilibration period, and the response recorded. This concentration of LTD4 is that which produces a contraction equal to about 70-80% of the maximal effect of the agonist in this tissue. The LTD4 is washed out for 20-25 minutes and the procedure repeated twice to insure that reproducible responses are being obtained with LTD4. LTC4, at a concentration of 8×10^-9 M, may be substituted for LTD4 in the same procedure.\nOnce tissue reproducibility has been established test compounds are added to four baths following the […] washout period. After a 10 minute incubation with test compound or vehicle 8×10^-9 M LT's are added and the response recorded. Percent inhibition by the test compound or percent change in vehicle controls is calculated, for each tissue, according to the following equation: % inhibition=100 multiplied by (mg tension increase of preceding response minus mg tension increase in presence of compound) divided by mg tension increase of preceding response. The means of the percent changes for vehicle controls and test compound are calculated and evaluated for significant differences by Students' t-test for unpaired data. Tissues exposed to agents were retested for responsiveness to LTD4 or C4 following a 25 minute washout period. […]"}
{"smiles": "CCCc1c(OCc2ccc(C(=O)O)cc2OC)ccc(C(C)=O)c1O", "note": "[Example 4, 3-Methoxy-4-(4-acetyl-3-hydroxy-2-propylphenoxy)methylbenzoic acid]", "activity as an SRS-A antagonist": "Particularly active"}
{"smiles": "CCCc1c(OCc2ccc(OCC(=O)O)cc2)ccc(C(C)=O)c1O", "note": "[Example 7, 4-(4-Acetyl-3-hydroxy-2-propylphenoxy)methylphenoxyacetic acid]", "activity as an SRS-A antagonist": "Particularly active"}
{"smiles": "CCCc1c(OCc2ccc(/C=C/C(=O)O)cc2)ccc(C(C)=O)c1O", "note": "[Example 16, 4-(4-Acetyl-3-hydroxy-2-propylphenoxy)methylcinnamic acid]", "activity as an SRS-A antagonist": "Particularly active"}
{"smiles": "CCCc1c(OCc2ccc(C=CC(=O)O)cc2OC)ccc(C(C)=O)c1O", "note": "[Example 22, 3-Methoxy-4-(4-acetyl-3-hydroxy-2-propylphenoxy)methylcinnamic acid]", "activity as an SRS-A antagonist": "Particularly active"}
